Results on 89 compounds are retold here after PubChem BioAssay AID463199 (Broad Institute, 2010).

Active and inactive are the calls of the source.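 The calls were made as follows: active = AC50, the dose giving half-maximal effect, exceeds a fixed cutoff for a compound that rescues yeast growth under heat; inactive = the rest, inconclusive results apart.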

This experiment concerns S. cerevisiae Burl-1 ts mutant growth, BacTiter-Glo, 38.5C 24 h. The experiment in a line: growth induction of Burl-1 ts yeast mutant, dose response, counter-screen for SUMOylation pathway inhibitor project, whole organism, S. cerevisiae, luminescence (AID 463199).

As to `CCOC(=O)C1C(c2ccc(C)o2)NC(=O)NC1(O)C(F)(F)F` (centres undefined), the AC50 (commonly the concentration giving half of the maximal activity seen) was > 42 µM (inactive).
Turning to `CCc1cc(/C(Cc2ccccn2)=N\O)c(O)cc1O`, the AC50 was > 42 µM (inactive).
Next, `CCOc1ccc(C(=O)NNC2CC(=O)N(CCc3ccccc3)C2=O)cc1OC` (centres undefined): > 42 µM (inactive).
As to `Cc1c(Cl)c([N+](=O)[O-])nn1CC(=O)NC12CC3CC(CC(C3)C1)C2`, the AC50 was > 42 µM (inactive).
Turning to `CN(C)C(=O)CN1C(=O)c2cccc3cccc1c23`, the AC50 is > 42 µM (inactive).
Take `CCn1c(SCC(=O)Nc2nc(-c3ccccc3)cs2)nnc1-c1ccccc1`: the AC50 was > 42 µM (inactive).
As for `CCOC(=O)C1=C(N)c2ccccc2CC1C1CCCC1` (centres undefined), the AC50 is > 42 µM (inactive).
For `Cc1nc(CC(=O)N/N=C/c2ccc(OCC(=O)O)cc2)cs1`, the AC50 is > 42 µM (inactive).
Turning to `OC(COCc1cccs1)CN1CCCCCC1` (centres undefined), the AC50 is > 42 µM (inactive).
For the compound `Cc1ccc(S(=O)(=O)N[C@@H](Cc2ccccc2)C(=O)CCl)cc1`, the AC50 is > 42 µM (inactive).
Next, `COc1ccc(-c2cc(C(F)(F)F)n3ncc(C(=O)O)c3n2)cc1OC`: > 42 µM (inactive); `c1ccc2nc3c(nc2c1)OCC1CCCCN31` (centres undefined): > 42 µM (inactive).
In the case of `O=C(O)c1cccc(N2C(=O)C3C4C=CC(C4=C(c4ccccc4)c4ccccc4)C3C2=O)c1` (centres undefined), the AC50 was > 42 µM (inactive).
Turning to `CCOCCCNCc1ccc(OCc2ccc(F)cc2)c(OC)c1`, the AC50 is > 42 µM (inactive).
Regarding `O=C(CCc1ccccc1)NNC(=S)Nc1ccc(F)cc1`, the AC50 was > 42 µM (inactive).
Next, `CCN(CC)c1ccc(C=C2C(=O)OC(c3ccccc3)OC2=O)cc1` (centres undefined): > 42 µM (inactive).
`CCN(C(=O)Cn1c(=O)oc2ccccc21)c1cccc(C)c1`: the AC50 was > 42 µM (inactive).
Regarding `Cc1ccc(/C=C/C(=O)OCC(=O)N(CC(C)C)c2c(N)n(Cc3ccccc3)c(=O)[nH]c2=O)o1`, the AC50 was > 21 µM (inactive).
For `CCOC(=O)C(NC(=O)c1ccccc1)(N1CCOCC1)C(F)(F)F` (centres undefined), the AC50 was > 42 µM (inactive).
For `CCCCCC(=O)Nc1nnn(CCC)n1`, the AC50 is > 42 µM (inactive).
As to `O=C(OCC(=O)N1CCN(c2ccccc2)CC1)c1nc(Cl)ccc1Cl`, the AC50 is > 42 µM (inactive).
For `O=S(=O)(Cc1ccccc1)N1CCN(c2ccccc2)CC1`, the AC50 is > 42 µM (inactive).
In the case of `CN(C(=O)COC(=O)c1cc(-c2ccc(Cl)s2)nc2ccccc12)C1CCS(=O)(=O)C1` (centres undefined), the AC50 was > 42 µM (inactive).
In the case of `CN(C)CCN(Cc1ccc(Cl)cc1)c1ccccn1`, the AC50 is 36.3 µM.
Next, `Cc1ccc(NC(=O)Cn2nnc(C(=O)NCc3ccc4c(c3)OCO4)c2N)cc1`: > 42 µM (inactive).
Next, `Cc1ccc(C2=NN(CC(=O)NCc3cccs3)C(=O)CC2)cc1`: > 42 µM (inactive).
Next, `COCC(C)n1c(-c2ccc3c(c2)NC(=O)CO3)csc1=Nc1ccc(OC(F)F)cc1` (centres undefined): > 42 µM (inactive).
For the compound `CCOc1ncccc1C(=O)OCC(=O)N(CC)c1ccccc1`, the AC50 is > 42 µM (inactive).
Next, `CCN1C(=NCc2cccc(Cl)c2)N[C@@H](c2cccc(F)c2)C(C(=O)OC)=C1C`: > 42 µM (inactive).
As to `CC(=O)N1CCc2cc(S(=O)(=O)NCCC3=CCCCC3)ccc21`, the AC50 was > 42 µM (inactive).
As to `CCc1ccc(NC(=O)N2CCC(c3ccccc3)C2)cc1` (centres undefined), the AC50 was > 42 µM (inactive).
Turning to `O=C(Cc1cccs1)Nc1nnc(-c2ccncc2)s1`, the AC50 was > 42 µM (inactive).
Take `Cc1ccc(NC(=O)COc2ccccc2C(=O)NCCN(C)C)cc1`: the AC50 was > 42 µM (inactive).
Next, `CN(C)S(=O)(=O)N1CCc2ccccc2C1`: > 42 µM (inactive); `O=C(O)/C=C/c1cccnc1`: > 42 µM (inactive).
As to `COCCCNS(=O)(=O)c1ccc(Oc2ncc(C(F)(F)F)cc2Cl)cc1`, the AC50 is > 42 µM (inactive).
Next, `CC(C)NC(=O)COc1ccc(S(=O)(=O)N(C)Cc2ccccc2)cc1`: > 42 µM (inactive); `Cc1ccc(-n2c(C)cc(/C=N/NC(=O)c3ccncc3)c2C)cc1C`: > 42 µM (inactive); `Cc1cc(=O)c(C(=O)O)cn1Nc1ccc(Cl)cc1`: > 42 µM (inactive).
As for `O=C(CN1CCN(c2nc(-c3ccccc3)cs2)CC1)NNC(=O)c1ccc(Br)cc1`, the AC50 is > 42 µM (inactive).
Next, `Nc1nnnn1CC(=O)N/N=C/c1cccs1`: > 42 µM (inactive); `COc1cc(C)c(Cl)c(C)c1S(=O)(=O)NCc1ccc2c(c1)OCO2`: > 42 µM (inactive); `Cc1nc2nc[nH]n2c(=O)c1NS(=O)(=O)c1ccc([N+](=O)[O-])cc1`: > 42 µM (inactive).
On to `N#Cc1c(Cn2cncn2)nc(=O)n(-c2ccc(Cl)cc2)c1N`, for which the AC50 was > 42 µM (inactive).
Take `CCNc1ccc(S(=O)(=O)N(C)C)cc1NCC(=O)Nc1ccccc1Br`: the AC50 was > 42 µM (inactive).
Take `CN/C(=C/[N+](=O)[O-])NCCSCc1ccc(CN(C)C)o1`: the AC50 was > 42 µM (inactive).
As for `O=C(Nc1cccc(C(=O)Nc2ccc(F)cc2F)c1)c1ccccc1`, the AC50 is > 42 µM (inactive).
Regarding `CC1CN(S(=O)(=O)c2cccc(C(=O)N=c3sccn3C)c2)CC(C)O1` (centres undefined), the AC50 is > 42 µM (inactive).
`Cc1cc(F)ccc1S(=O)(=O)Nc1ccccc1C(=O)Nc1ccc2[nH]c(=O)[nH]c2c1`: the AC50 was > 42 µM (inactive).
Take `CCOc1ccc(NC(=O)CNc2ccc(C)cc2Cl)cc1`: the AC50 was > 42 µM (inactive).
In the case of `O=c1c2ccccc2ncn1Cc1ccc2c(c1)OCO2`, the AC50 is > 42 µM (inactive).
Consider `CCCOc1ccc(C(=O)NCc2ccco2)cc1`, for which the AC50 was > 42 µM (inactive).
Consider `CCN1C(=O)N(c2ccc(Cl)cc2)C(C)=CC1(C)C`, for which the AC50 is > 42 µM (inactive).
In the case of `O=C(COc1ccccc1)NCCS(=O)(=O)N1CCN(c2ccccc2)CC1`, the AC50 was > 42 µM (inactive).
In the case of `Cc1nn(C)cc1CNC(=O)C1CCC(=O)N(Cc2cccc(C(F)(F)F)c2)C1` (centres undefined), the AC50 is > 42 µM (inactive).
As to `Cc1cc(Nc2nc3c(c(=O)n(C)c(=O)n3C)n2C)n(-c2ccc(Cl)cc2)n1`, the AC50 was > 42 µM (inactive).
Next, `CCn1cc(C(=O)N2CCN(c3ccc(OC)cc3)CC2)c(=O)c2cc(S(=O)(=O)N3CCOCC3)ccc21`: > 42 µM (inactive).
`Cc1c(NC(=O)c2cc(-c3ccccc3O)on2)c(=O)n(-c2ccccc2)n1C`: the AC50 was > 42 µM (inactive).
`COCC(=O)n1nc(NCc2ccc(OC)cc2)nc1NCc1ccc(OC)cc1`: the AC50 is > 42 µM (inactive).
Regarding `CN(C(=O)c1ccncc1)c1nnc(-c2cnccn2)s1`, the AC50 is > 42 µM (inactive).
For the compound `O=C(O)CCC(=O)Nc1cccc(C(=O)Nc2ccc(Br)cc2)c1`, the AC50 was > 42 µM (inactive).
As for `Cc1ccc(C(=O)NCCCNC(=O)c2ccc(C)nc2)cc1`, the AC50 is > 42 µM (inactive).
Next, `Cc1ccc(S(=O)(=O)Oc2ccc(/C=C3\N=C(c4cccc(C)c4)OC3=O)cc2)cc1`: > 42 µM (inactive); `COc1ccccc1NC(=S)N(Cc1ccccc1)Cc1cccs1`: > 42 µM (inactive).
In the case of `O=C(O)C1C2CCCCC2=C2CCCCC2C1C(=O)c1ccccc1` (centres undefined), the AC50 is > 42 µM (inactive).
As to `Cc1cc(NC(=O)CC2CCCC2)ccc1Br`, the AC50 was > 42 µM (inactive).
As for `O=S(=O)(c1cccc(-c2nnco2)c1)N1CCCC1`, the AC50 was > 42 µM (inactive).
Next, `COc1cccc(S(=O)(=O)Nc2cccc(C(=O)N3CCOCC3)c2)c1`: > 42 µM (inactive).
Next, `O=C(C1CCCN(S(=O)(=O)c2cnc[nH]2)C1)N1CCN(c2ccc(Cl)cc2)CC1` (centres undefined): > 42 µM (inactive); `COc1ccc(-c2cc(C#N)nc(N3CCN(c4ccccc4)CC3)n2)cc1`: > 42 µM (inactive); `CN1C(=O)/C(=C/c2ccc(OCc3ccccc3F)cc2)NC1=S`: > 42 µM (inactive).
Next, `CC/C(=N\Nc1ccc([N+](=O)[O-])cc1)c1ccccc1`: > 42 µM (inactive); `Cc1sc(NC(=O)c2ccco2)c(C(c2ccc(F)cc2)N2CCN(C)CC2)c1C` (centres undefined): > 42 µM (inactive); `c1ccc(C(c2ccccc2)N2CCN(C(c3ccccn3)c3nnnn3C3CCCC3)CC2)cc1` (centres undefined): > 42 µM (inactive).
Turning to `O=C(COc1cccnc1[N+](=O)[O-])Nc1ccc2c(c1)CCC2`, the AC50 is > 21 µM (inactive).
As to `O=C(O)c1ccc(Cl)c(NCc2cccs2)c1`, the AC50 was > 42 µM (inactive).
In the case of `O=C1C2C(c3ccccc3)CC=CC2[C@H](c2ccc3ccccc3c2)N1Cc1ccccc1` (some centres undefined), the AC50 is > 42 µM (inactive).
For `Cn1c(=O)nc2n(Cc3ccccc3)c3ccccc3cc-2c1=O`, the AC50 was > 42 µM (inactive).
Next, `CC1CCCC(C)N1CCCNC(=O)c1csc2c1CCCCC2` (centres undefined): > 42 µM (inactive).
With `Cc1nc2ccccc2c2ncccc12`, the AC50 is > 42 µM (inactive).
In the case of `O=C(Nc1nc2ccccc2s1)c1cccc(S(=O)(=O)N2CCc3ccccc32)c1`, the AC50 is > 42 µM (inactive).
Take `Fc1cccc(Cl)c1CSc1nnc(CN2CCOCC2)n1-c1ccccc1`: the AC50 was > 42 µM (inactive).
Take `Cc1cc(C)cc(N2C(=O)CC(Sc3ncn[nH]3)C2=O)c1` (centres undefined): the AC50 is > 42 µM (inactive).
Consider `C=CCNC(=O)c1cc(-c2cccnc2)nc2ccccc12`, for which the AC50 was > 42 µM (inactive).
For `Cc1ccc(C)c(OCCCC(=O)N2CCOCC2)c1`, the AC50 was > 42 µM (inactive).
As to `Cc1ccc(N(CC(=O)NCCc2ccc(Cl)cc2)S(=O)(=O)c2c(C)noc2C)cc1`, the AC50 was > 42 µM (inactive).
Next, `CC(C)(C)NC(=S)NCc1cccnc1`: > 42 µM (inactive); `COCCCN1C(=O)c2ccc(C(=O)Nc3ccc(OC)cc3OC)cc2C1=O`: > 42 µM (inactive); `Cc1ccc(CSCCNC(=O)c2ccc(NS(C)(=O)=O)cc2)cc1`: > 42 µM (inactive).
